One may read the EC50 as the concentration that produces a half-maximal response.

The first test relates to HBV. Description: HBV inhibition assay in HepAD38 cells (extracellular HBV DNA by direct qPCR). The test is classed as cell-based. The conditions noted are these: Hepatitis B virus, 8-point dose-response curve, 96 hours, read-out: HBV inh EC50. From the text: HepAD38 cell line (Ladner et al., Antimicrob Agents Chemother, 1997, 41, 1715-20) was used for HBV inhibition assays. HepAD38 is a subclone, derived from Hepatoblastoma cell line HepG2 (ATCC® Number: HB-8065™), that expresses HBV genome under the control of a tetracycline-responsive promoter in a TET-OFF system: addition of tetracycline suppresses HBV replication, while its removal switches on the process allowing HBV viral particles release in the cell supernatant. HepAD38 cell line is maintained in DMEM/F12, supplemented with 10% of fetal bovine serum, 1% of glutamine, 1% of penicillin/streptomycin, 0.4 mg/ml G418 and 0,3 ug/ml tetracycline. For the HBV inhibition assay, doxycycline-free medium is used in order to allow virion production.
HBV inhibition activity in vitro was performed in 96 multiwell plates. During the initial (primary) screening compounds were first tested in triplicates at concentrations of 0.1µM, 0.5µM amd 1µM. For selected compounds, an 8-point dose-response curve can be obtained using 1:2 serial dilutions (starting from 2.5 µM, 1.25µM or 0.4 µM, depending on the degree of inhibition observed during the primary screening). From the dose-response curves, half maximal effective concentration (EC50) can be calculated (see also below).
In more detail, compounds - typically dissolved in DMSO stock solutions - are diluted to 2x the final desired concentration in 100 µl of the above medium (without doxycycline) and plated in three replicates in the 96-well plates.
Simultaneously, HepAD38 cells - extensively pre-washed in tetracycline-free medium in order to induce HBV production - are suspended at 2*10^4 cells in 100 µl of tetracycline-free medium and added to each well of the plate, to yield a final assay volume of 200 µl DMSO - used for stock solutions and compounds dilutions - which is always present in the assays at a final concentration of 0.5%.
Plates are then incubated 96 hours at 37°C and then subjected to cell viability assay in order to define compounds cytotoxicity and to extracellular HBV quantification in order to evaluate antiviral activity of compounds. Cytotoxicity is assessed by a commercial fluorescence assay that measures the metabolic activity of cells, directly related to cell viability (Cell Titer Blue, Promega). Anti-HBV activity was evaluated by quantification of extracellular HBV DNA with direct qPCR. In particular, supernatant was collected and centrifuged for cell debris clarification, viral DNA was extracted from virions by addition of lysis buffer (1 mM 1,4-dithiothreitol, 0.2% sodium dodecyl sulphate) and incubated at 95°C for 10 min. Samples were then diluted 1:40 and real time PCR amplification was performed with SYBR green assay (Power SYBR™ Green PCR Master Mix-Thermo Fisher Scientific) and specific HBV primer (HBV-DF:5'-[…]-3' (SEQ ID No. 1), HBV-DR:5'-[…]-3' (SEQ ID No. 2)).
All HBV inhibition or antiviral activity data are typically reported in percent (%) relative to a non-treated reference sample. Excel and Graphpad Prism programs are typically used for data elaboration and EC50 calculation.
Consider `O=C(Nc1cc(F)c(F)c(F)c1)c1ccc2c(c1)S(=O)(=O)N[C@]1(N2)C(=O)Nc2ccccc21` (single isomer, unassigned) [Example E129], for which the EC50 was more than 1000 nM.

The test is the same for the next values; noted with them: Hepatitis B virus, compound at 0.5 µM, 96 hours, relative to non-treated reference, read-out: Anti HBV Activity (conc µM).
For `O=C(Nc1cc(F)c(F)c(F)c1)c1ccc2c(c1)S(=O)(=O)NC(CCO)N2` (centres unmarked) [Example E22, 3-(2-hydroxyethyl)-N-(3,4,5-trifluorophenyl)-3,4-dihydro-2H-benzo[e][1,2,4]thiadiazine-7-carboxamide 1,1-dioxide], the inhibition at 0.5 µM was more than 50%.

With `O=C(Nc1cc(F)c(F)c(F)c1)c1ccc2c(c1)S(=O)(=O)N(C1COC1)C(=O)N2` [Example E82, 2-(oxetan-3-yl)-3-oxo-N-(3,4,5-trifluorophenyl)-3,4-dihydro-2H-benzo[e][1,2,4]thiadiazine-7-carboxamide 1,1-dioxide], the inhibition at 0.5 µM was more than 50%.

On to `O=C(Nc1cc(F)c(F)c(F)c1)c1ccc2c(c1)S(=O)(=O)N([C@H]1C[C@@H](O)C1)CN2` [Example E126, Cis-2-(3-hydroxycyclobutyl)-N-(3,4,5-trifluorophenyl)-3,4-dihydro-2H-benzo[e][1,2,4]thiadiazine-7-carboxamide 1,1-dioxide], for which the inhibition at 0.5 µM was less than 50%.

Consider `O=C(Nc1cc(F)c(F)c(F)c1)c1ccc2c(c1)S(=O)(=O)NC1(CCNCC1)N2` [Example E14, N-(3,4,5-trifluorophenyl)-2H,4H-spiro[benzo[e][1,2,4]thiadiazine-3,4'-piperidine]-7-carboxamide 1,1-dioxide], for which the inhibition at 0.5 µM is more than 50%.

`C[C@H](O)C1=NS(=O)(=O)c2cc(C(=O)Nc3cc(F)c(F)c(F)c3)ccc2N1` [Example E25, (S)-3-(1-hydroxyethyl)-N-(3,4,5-trifluorophenyl)-4H-benzo[e][1,2,4]thiadiazine-7-carboxamide1,1-dioxide]: the inhibition at 0.5 µM is less than 50%.

Regarding `[2H]C1([2H])Nc2ccc(C(=O)Nc3cc(F)c(F)c(F)c3)cc2S(=O)(=O)N1` [Example E2, N-(3,4,5-trifluorophenyl)-3,4-dihydro-2H-benzo[e][1,2,4]thiadiazine-3,3-d2-7-carboxamide 1,1-dioxide], the inhibition at 0.5 µM was more than 50%.

Still in this test, the particulars now being: Hepatitis B virus, compound at 1 µM, 96 hours, relative to non-treated reference, read-out: Anti HBV Activity (conc µM).
Regarding `O=C(Nc1cc(F)c(F)c(F)c1)c1ccc2c(c1)S(=O)(=O)N1CCC1CN2` (centres unmarked) [Example E107, N-(3,4,5-trifluorophenyl)-1,9,10,10a-tetrahydro-2H-azeto[1,2-b]benzo[f][1,2,5]thiadiazepine-6-carboxamide 4,4-dioxide], the inhibition at 1 µM is less than 50%.

For the molecule `CN1CC2CCCCN2S(=O)(=O)c2cc(C(=O)Nc3cc(F)c(F)c(F)c3)ccc21` (centres unmarked) [Example E102, 11-methyl-N-(3,4,5-trifluorophenyl)-1,3,4,11,12,12a-hexahydro-2H-benzo[f]pyrido[1,2-b][1,2,5]thiadiazepine-8-carboxamide 6,6-dioxide], the inhibition at 1 µM is less than 50%.

On to `N#Cc1cc(NC(=O)c2ccc3c(c2)S(=O)(=O)NC=N3)ccc1F` [Example E90, N-(3-cyano-4-fluorophenyl)-2H-benzo[e][1,2,4]thiadiazine-7-carboxamide 1,1-dioxide], for which the inhibition at 1 µM was less than 50%.

`O=C(Nc1cc(F)c(F)c(F)c1)c1ccc2c(c1)S(=O)(=O)NC(c1cnns1)N2` (centres unmarked) [Example E45, 3-(1,2,3-thiadiazol-5-yl)-N-(3,4,5-trifluorophenyl)-3,4-dihydro-2H-benzo[e][1,2,4]thiadiazine-7-carboxamide 1,1-dioxide]: the inhibition at 1 µM is more than 50%.

For the molecule `CC(C)(C)OC(=O)N1CCN2C(COc3ccc(C(=O)Nc4cc(F)c(F)c(F)c4)cc3S2(=O)=O)C1` (centres unmarked) [Example E114, tert-butyl 8-((3,4,5-trifluorophenyl)carbamoyl)-3,4,12,12a-tetrahydrobenzo[b]pyrazino[1,2-e][1,4,5]oxathiazepine-2(1H)-carboxylate 6,6-dioxide], the inhibition at 1 µM was less than 50%.

`O=C(Nc1cc(F)c(F)c(F)c1)c1ccc2c(c1)S(=O)(=O)NCC(CO)O2` (centres unmarked) [Example E139, 4-(hydroxymethyl)-N-(3,4,5-trifluorophenyl)-3,4-dihydro-2H-benzo[b][1,4,5]oxathiazepine-8-carboxamide 1,1-dioxide]: the inhibition at 1 µM is less than 50%.

Turning to `CC1=Nc2ccc(C(=O)Nc3ccc(F)c(F)c3)cc2S(=O)(=O)N1` [Example E67, N-(3,4-difluorophenyl)-3-methyl-2H-benzo[e][1,2,4]thiadiazine-7-carboxamide 1,1-dioxide], the inhibition at 1 µM was less than 50%.

For `O=C(Nc1cc(F)c(F)c(F)c1)c1ccc2c(c1)S(=O)(=O)N1CCCC[C@H]1CO2` [Example E113, (S)-N-(3,4,5-trifluorophenyl)-1,2,3,4,12,12a-hexahydrobenzo[b]pyrido[1,2-e][1,4,5]oxathiazepine-8-carboxamide 6,6-dioxide], the inhibition at 1 µM was less than 50%.

Regarding `O=C(Nc1cc(F)c(F)c(F)c1)c1ccc2c(c1)S(=O)(=O)N1CCCCC1CN2` (centres unmarked) [Example E101, N-(3,4,5-trifluorophenyl)-1,3,4,11,12,12a-hexahydro-2H-benzo[f]pyrido[1,2-b][1,2,5]thiadiazepine-8-carboxamide 6,6-dioxide], the inhibition at 1 µM was more than 50%.

With `O=C(Nc1cc(F)c(F)c(F)c1)c1ccc2c(c1)S(=O)(=O)N1CC[C@@H](C1)N2` [Example E105, (5S)-N-(3,4,5-trifluorophenyl)-3,4,5,6-tetrahydro-2,5-methanobenzo[g][1,2,6]thiadiazocine-9-carboxamide 1,1-dioxide], the inhibition at 1 µM was less than 50%.

Take `O=C(Nc1ccc(F)c(F)c1)c1ccc2c(c1)S(=O)(=O)NCN2` [Example E19, N-(3,4-difluorophenyl)-3,4-dihydro-2H-benzo[e][1,2,4]thiadiazine-7-carboxamide 1,1-dioxide]: the inhibition at 1 µM is more than 50%.

Regarding `CC1(c2ccncc2)Nc2ccc(C(=O)Nc3cc(F)c(F)c(F)c3)cc2S(=O)(=O)N1` (centres unmarked) [Example E39, 3-methyl-3-(pyridin-4-yl)-N-(3,4,5-trifluorophenyl)-3,4-dihydro-2H-benzo[e][1,2,4]thiadiazine-7-carboxamide 1,1-dioxide], the inhibition at 1 µM is more than 50%.

On to `O=C(Nc1cc(F)c(F)c(F)c1)c1ccc2c(c1)S(=O)(=O)N1CCCC[C@@H]1CO2` [Example E112, (R)-N-(3,4,5-trifluorophenyl)-1,2,3,4,12,12a-hexahydrobenzo[b]pyrido[1,2-e][1,4,5]oxathiazepine-8-carboxamide 6,6-dioxide], for which the inhibition at 1 µM was less than 50%.

`O=C(Nc1cc(F)c(F)c(F)c1)c1ccc2c(c1)S(=O)(=O)NC1(COC1)CO2` [Example E140, N-(3,4,5-trifluorophenyl)-2H,4H-spiro[benzo[b][1,4,5]oxathiazepine-3,3'-oxetane]-8-carboxamide 1,1-dioxide]: the inhibition at 1 µM is less than 50%.

For `O=C(Nc1ccc(F)c(F)c1)c1ccc2c(c1)S(=O)(=O)NC(CO)N2` (centres unmarked) [Example E119, N-(3,4-difluorophenyl)-3-(hydroxymethyl)-3,4-dihydro-2H-benzo[e][1,2,4]thiadiazine-7-carboxamide 1,1-dioxide], the inhibition at 1 µM was more than 50%.

With `NCC1Nc2ccc(C(=O)Nc3cc(F)c(F)c(F)c3)cc2S(=O)(=O)N1` (centres unmarked) [Example E29, 3-(aminomethyl)-N-(3,4,5-trifluorophenyl)-3,4-dihydro-2H-benzo[e][1,2,4]thiadiazine-7-carboxamide 1,1-dioxide], the inhibition at 1 µM is more than 50%.

These data come from patent publication EP3597653A1, “CYCLIC INHIBITORS OF HEPATITIS B VIRUS” (IRBM S.P.A., priority 2018, dated 2020).
